Target: T1, Human complement C1s enzyme (Homo sapiens, UniProt P09871)
T1 sequence (P09871 438-688 limits assumed): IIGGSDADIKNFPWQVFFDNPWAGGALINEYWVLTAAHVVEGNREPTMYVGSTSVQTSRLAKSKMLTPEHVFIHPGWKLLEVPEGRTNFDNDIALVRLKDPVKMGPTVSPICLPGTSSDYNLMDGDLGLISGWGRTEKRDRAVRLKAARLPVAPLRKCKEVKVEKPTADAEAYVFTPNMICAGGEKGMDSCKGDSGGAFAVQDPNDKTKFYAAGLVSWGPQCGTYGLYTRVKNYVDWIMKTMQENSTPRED
T1 sequence (P09871 16-437 partner limits assumed): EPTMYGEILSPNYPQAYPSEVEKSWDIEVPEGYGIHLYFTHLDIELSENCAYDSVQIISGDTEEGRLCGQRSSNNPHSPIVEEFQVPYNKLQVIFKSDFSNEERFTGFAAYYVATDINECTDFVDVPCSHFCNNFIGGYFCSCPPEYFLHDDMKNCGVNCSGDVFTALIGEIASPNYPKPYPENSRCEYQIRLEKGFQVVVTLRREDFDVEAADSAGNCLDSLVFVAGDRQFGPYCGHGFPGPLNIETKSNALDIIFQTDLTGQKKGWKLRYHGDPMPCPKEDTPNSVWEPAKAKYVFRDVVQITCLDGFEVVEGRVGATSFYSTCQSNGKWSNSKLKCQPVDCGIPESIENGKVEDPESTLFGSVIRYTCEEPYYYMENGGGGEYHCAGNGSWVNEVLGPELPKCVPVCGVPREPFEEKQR
Assay: Human C1s enzyme assay
Assay type: biochemical
Conditions: human complement C1s enzyme 1.16 nM, substrate Z-L-Lys-SBzl 100 μM, 5 min preincubation; read-out: IC50 (Stars), C1s Inhibiting Activity
Procedure, shortened: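 Serum-purified human C1s (1.16 nM final) preincubated 5 min at room temperature with compound in 50 mM Tris, 1 M NaCl, pH 7.5. Z-L-Lys-SBzl and DTNB added at 100 μM each; A405 followed every 30 s for 30 min, and IC50 obtained by nonlinear regression of reaction rates.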

Structure (SMILES) | IC50
O=C(NCc1cc2cnccc2[nH]1)[C@@H]1C[C@@H](OC(F)F)CN1C(=O)CN1Cc2ncc(-c3ccc(F)cc3)cc2C1=O [Compound 138, (2S,4R)-N-((1H-pyrrolo[3,2-c]pyridin-2-yl)methyl)-4-(difluoromethoxy)-1-(2-(3-(4-fluorophenyl)-5-oxo-5,7-dihydro-6H-pyrrolo[3,4-b]pyridin-6-yl)acetyl)pyrrolidine-2-carboxamide] | > 1000 nM
O=C(NCC(=O)N1CC[C@@H](O)[C@H]1C(=O)NCc1cc2cnccc2[nH]1)c1ccc(Oc2ccccc2)cc1 [Compound 151, (2S,3R)-N-((1H-pyrrolo[3,2-c]pyridin-2-yl)methyl)-3-hydroxy-1-((4-phenoxybenzoyl)glycyl)pyrrolidine-2-carboxamide] | 100 to 1000 nM
O=C(NCC(=O)N1CC2(C[C@H]1C(=O)NCc1nc3cnccc3[nH]1)OCCO2)c1ccc2c(c1)Oc1ccccc1S2 [Compound 49, (S)-N-((1H-imidazo[4,5-c]pyridin-2-yl)methyl)-7-((phenoxathiine-3-carbonyl)glycyl)-1,4-dioxa-7-azaspiro[4.4]nonane-8-carboxamide] | > 1000 nM
CC1c2ccccc2-c2cc(C(=O)NCC(=O)N3C[C@H](OC(F)F)C[C@H]3C(=O)NCc3cc4cnccc4[nH]3)ccc21 (stereo partly drawn) [Compound 302, (2S,4R)-N-((1H-pyrrolo[3,2-c]pyridin-2-yl)methyl)-4-(difluoromethoxy)-1-((9-methyl-9H-fluorene-3-carbonyl)glycyl) pyrrolidine-2-carboxamide] | < 100 nM
C[C@@H](NC(=O)[C@@H]1C[C@](F)(Cn2ccnc2)CN1C(=O)CNC(=O)c1ccc2c(c1)Oc1ccccc1S2)c1cc2cnccc2[nH]1 [Compound 217, (2S,4S)-4-((1H-imidazol-1-yl)methyl)-N-((R)-1-(1H-pyrrolo[3,2-c]pyridin-2-yl)ethyl)-4-fluoro-1-((phenoxathiine-3-carbonyl)glycyl)pyrrolidine-2-carboxamide] | < 100 nM
O=C(NCC(=O)N1C[C@H](OC(F)F)C[C@H]1C(=O)NCc1ccc2ocnc2c1)c1ccc2c(c1)Oc1ccccc1S2 [Compound 282, (2S,4R)-N-(benzo[d]oxazol-5-ylmethyl)-4-(difluoromethoxy)-1-((phenoxathiine-3-carbonyl)glycyl)pyrrolidine-2-carboxamide] | > 1000 nM
COC[C@@]1(F)C[C@@H](C(=O)N[C@H](C)c2cc3cnccc3[nH]2)N(C(=O)CNC(=O)c2ccc(Oc3ccccc3)cc2)C1 [Compound 40, (2S,4R)-N-((R)-1-(1H-pyrrolo[3,2-c]pyridin-2-yl)ethyl)-4-fluoro-4-(methoxymethyl)-1-((4-phenoxybenzoyl)glycyl) pyrrolidine-2-carboxamide] | 100 to 1000 nM
C[C@@H](NC(=O)[C@@H]1C[C@]2(C)C[C@@H]2N1C(=O)CNC(=O)c1ccc2c(c1)-c1ccccc1C2(F)F)c1cc2cnccc2[nH]1 [Compound 76, (1S,3S,5S)-N-((R)-1-(1H-pyrrolo[3,2-c]pyridin-2-yl)ethyl)-2-((9,9-difluoro-9H-fluorene-3-carbonyl)glycyl)-5-methyl-2-azabicyclo[3.1.0]hexane-3-carboxamide] | > 1000 nM
O=C(NCC(=O)N1CC2(C[C@H]1C(=O)NCc1cc3cnc(Cl)cc3[nH]1)OCCO2)c1ccc2c(c1)Oc1ccccc1S2 [Compound 43, (S)-N-((6-chloro-1H-pyrrolo[3,2-c]pyridin-2-yl)methyl)-7-((phenoxathiine-3-carbonyl)glycyl)-1,4-dioxa-7-azaspiro[4.4]nonane-8-carboxamide] | > 1000 nM
C[C@@H](NC(=O)[C@@H]1C[C@@H](OC(F)F)CN1C(=O)CNC(=O)c1ccc2c(c1)Oc1ccccc1S2)c1cc2cnccc2s1 [Compound 208, (2S,4R)-4-(difluoromethoxy)-1-((phenoxathiine-3-carbonyl)glycyl)-N-((R)-1-(thieno[3,2-c]pyridin-2-yl)ethyl)pyrrolidine-2-carboxamide] | < 100 nM
O=C(NCC(=O)N1CC2(C[C@H]1C(=O)NCc1nc3cnccc3o1)OCCO2)c1ccc2c(c1)Oc1ccccc1S2 [Compound 31, (S)-N-(oxazolo[4,5-c]pyridin-2-ylmethyl)-7-((phenoxathiine-3-carbonyl)glycyl)-1,4-dioxa-7-azaspiro[4.4]nonane-8-carboxamide] | > 1000 nM
COC[C@@]1(F)C[C@@H](C(=O)NCc2cc3cnccc3[nH]2)N(C(=O)CNC(=O)c2ccc(Oc3ccccc3)cc2)C1 [Compound 30, (2S,4R)-N-((1H-pyrrolo[3,2-c]pyridin-2-yl)methyl)-4-fluoro-4-(methoxymethyl)-1-((4-phenoxybenzoyl)glycyl) pyrrolidine-2-carboxamide] | < 100 nM
C[C@@H](NC(=O)[C@@H]1C[C@@H](OC(F)(F)F)CN1C(=O)CNC(=O)c1ccc2c(c1)Oc1ccccc1S2)c1cc2cnccc2[nH]1 [Compound 251, (2S,4R)-N-((R)-1-(1H-pyrrolo[3,2-c]pyridin-2-yl)ethyl)-1-((phenoxathiine-3-carbonyl)glycyl)-4-(trifluoromethoxy)pyrrolidine-2-carboxamide] | < 100 nM
O=C(NCC(=O)N1C[C@H](OC(F)F)C[C@H]1C(=O)NCc1cc2cnccc2[nH]1)c1ccc(F)c(Oc2ccsc2)c1 [Compound 317, (2S,4R)-4-(difluoromethoxy)-1-[2-[[4-fluoro-3-(3-thienyloxy)benzoyl]amino]acetyl]-N-(1H-pyrrolo[3,2-c]pyridin-2-ylmethyl)pyrrolidine-2-carboxamide] | < 100 nM
C[C@@H](NC(=O)C1C[C@H](COCCCCCC(=O)O)CN1C(=O)CNC(=O)c1ccc2c(c1)Oc1ccccc1S2)c1cc2cnccc2[nH]1 (stereo partly drawn) [Compound 204, 6-(((3S)-5-(((R)-1-(1H-pyrrolo[3,2-c]pyridin-2-yl)ethyl)carbamoyl)-1-((phenoxathiine-3-carbonyl)glycyl)pyrrolidin-3-yl)methoxy)hexanoic acid] | < 100 nM
Cc1ccc(Oc2cccc(C(=O)NCC(=O)N3C[C@H](OC(F)F)C[C@H]3C(=O)Nc3cc4cnccc4s3)c2F)cc1 [Compound 376, (2S,4R)-4-(difluoromethoxy)-1-((2-fluoro-3-(p-tolyloxy)benzoyl)glycyl)-N-(thieno[3,2-c]pyridin-2-yl)pyrrolidine-2-carboxamide] | > 1000 nM
Cc1cc(F)ccc1Oc1ccc(C(=O)NCC(=O)N2C[C@H](OC(F)F)C[C@H]2C(=O)NCc2cc3cnccc3[nH]2)cc1 [Compound 308, (2S,4R)-N-((1H-pyrrolo[3,2-c]pyridin-2-yl)methyl)-4-(difluoromethoxy)-1-((4-(4-fluoro-2-methylphenoxy)benzoyl)glycyl)pyrrolidine-2-carboxamide] | < 100 nM
CCc1ccc(Oc2cccc(C(=O)NCC(=O)N3C[C@H](OC(F)F)C[C@H]3C(=O)NCc3cc4cnccc4[nH]3)c2)cc1 [Compound 293, (2S,4R)-N-((1H-pyrrolo[3,2-c]pyridin-2-yl)methyl)-4-(difluoromethoxy)-1-((3-(4-ethylphenoxy)benzoyl)glycyl) pyrrolidine-2-carboxamide] | < 100 nM
O=C(NCC(=O)N1C[C@H](OC(F)F)C[C@H]1C(=O)NCc1ccc2c(c1)CCNC2)c1ccc2c(c1)Oc1ccccc1S2 [Compound 223, (2S,4R)-4-(difluoromethoxy)-1-((phenoxathiine-3-carbonyl)glycyl)-N-((1,2,3,4-tetrahydroisoquinolin-6-yl)methyl)pyrrolidine-2-carboxamide] | 100 to 1000 nM
O=C(NCC(=O)N1C[C@H](OC(F)F)C[C@H]1C(=O)NCc1ccc2[nH]cnc2n1)c1ccc2c(c1)Oc1ccccc1S2 [Compound 258, (2S,4R)-N-((1H-imidazo[4,5-b]pyridin-5-yl)methyl)-4-(difluoromethoxy)-1-((phenoxathiine-3-carbonyl)glycyl)pyrrolidine-2-carboxamide] | > 1000 nM
C[C@@]12C[C@@H]1N(C(=O)CNC(=O)c1cccc(Oc3ccc(F)cc3)c1)[C@H](C(=O)NCc1cc3cnccn3c1)C2 [Compound 269, (1S,3S,5S)-2-((3-(4-fluorophenoxy)benzoyl)glycyl)-5-methyl-N-(pyrrolo[1,2-a]pyrazin-7-ylmethyl)-2-azabicyclo[3.1.0]hexane-3-carboxamide] | < 100 nM
C[C@@H](NC(=O)[C@@H]1C[C@]2(C)C[C@@H]2N1C(=O)CNC(=O)c1cccc(Oc2ccccc2)c1)c1cc2cnccc2[nH]1 [Compound 171, (1S,3S,5S)-N-((R)-1-(1H-pyrrolo[3,2-c]pyridin-2-yl)ethyl)-5-methyl-2-((3-phenoxybenzoyl)glycyl)-2-azabicyclo[3.1.0]hexane-3-carboxamide] | < 100 nM
CO[C@@H]1C[C@@H](C(=O)N[C@H](C)c2cc3cnccc3[nH]2)N(C(=O)CNC(=O)c2ccc3c(c2)Oc2ccccc2S3)C1 [Compound 160, (2S,4R)-N-((R)-1-(1H-pyrrolo[3,2-c]pyridin-2-yl)ethyl)-4-methoxy-1-((phenoxathiine-3-carbonyl)glycyl)pyrrolidine-2-carboxamide] | < 100 nM

Reference: patent US20260062443A1 (ALEXION PHARMACEUTICALS, INC., priority 2022, published 2026)
